Results on two molecules are retold here after US11725189B2, “Maintenance culture of induced pluripotent stem cell-derived intestinal stem cells” (PUBLIC UNIVERSITY CORPORATION NAGOYA CITY UNIVERSITY, priority 2017, dated 2023).

One data set concerns mucin 2. In words: Detection of mucin 2 mRNA (real-time RT-PCR) in human iPS cell-derived intestinal epithelial cells. It is filed as cell-based. An excerpt: (§1) iPS cells were allowed to differentiate into intestinal stem cells, which were then subcultured once. Thereafter, the cells were subjected to a maintenance culture according to the culture method of intestinal stem cells, which had been established in the above-described studies, and were then allowed to differentiate into intestinal epithelial cells.
(§2) After the differentiated intestinal epithelial cells had been recovered, RNA was extracted using Agencourt (registered trademark) RNAdvance™ Tissue Kit, in accordance with the instruction manual included therewith.
(§3) Complementary DNA (cDNA) was synthesized using ReverTra Ace (registered trademark) qPCR RT Master Mix, in accordance with the instruction manual included therewith.
(§4) Real-Time RT-PCR was carried out on cDNA used as a template, using KAPA SYBR Fast qPCR Kit, in accordance with the instruction manual included therewith.

The test system of another data set is chromogranin A (CgA). In words: Detection of CgA mRNA (real-time RT-PCR) in human iPS cell-derived intestinal epithelial cells. It counts as cell-based.
Excerpt: as §1, §2, §3, §4

The target of another data set is T1, TGF-β receptor ALK7 (Homo sapiens, UniProt Q8NER5).
T1 sequence (Q8NER5 21-493): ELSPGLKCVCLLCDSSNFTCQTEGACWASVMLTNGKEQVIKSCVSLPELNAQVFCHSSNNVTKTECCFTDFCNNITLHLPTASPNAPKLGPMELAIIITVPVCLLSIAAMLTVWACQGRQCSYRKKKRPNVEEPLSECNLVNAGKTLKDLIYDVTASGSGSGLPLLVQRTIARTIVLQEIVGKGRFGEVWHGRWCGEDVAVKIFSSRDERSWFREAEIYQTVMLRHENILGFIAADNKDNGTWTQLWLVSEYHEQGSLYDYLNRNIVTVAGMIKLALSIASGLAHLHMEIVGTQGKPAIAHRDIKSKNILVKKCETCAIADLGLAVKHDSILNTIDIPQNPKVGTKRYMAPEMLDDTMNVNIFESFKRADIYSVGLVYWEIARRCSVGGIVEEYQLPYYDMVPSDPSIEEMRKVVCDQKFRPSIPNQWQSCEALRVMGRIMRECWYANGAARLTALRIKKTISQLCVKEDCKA
As to conditions: cited from earlier work.

The target in the next data set is T2, TGF-β receptor ALK5 (Homo sapiens, UniProt P36897).
T2 sequence (P36897 34-503): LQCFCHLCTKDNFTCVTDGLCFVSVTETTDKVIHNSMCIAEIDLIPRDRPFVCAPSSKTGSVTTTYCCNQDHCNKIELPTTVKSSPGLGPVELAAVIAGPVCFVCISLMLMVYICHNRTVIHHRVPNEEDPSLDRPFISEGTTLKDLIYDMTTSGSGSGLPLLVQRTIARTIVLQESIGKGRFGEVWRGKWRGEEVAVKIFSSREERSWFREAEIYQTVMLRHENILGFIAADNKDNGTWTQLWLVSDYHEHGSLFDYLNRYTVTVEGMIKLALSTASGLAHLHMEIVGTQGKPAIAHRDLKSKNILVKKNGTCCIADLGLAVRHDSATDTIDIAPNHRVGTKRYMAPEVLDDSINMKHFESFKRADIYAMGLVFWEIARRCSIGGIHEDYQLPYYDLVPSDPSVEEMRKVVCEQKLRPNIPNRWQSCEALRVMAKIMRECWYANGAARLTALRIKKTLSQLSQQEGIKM
The settings on record: cited from earlier work.

The target of another data set is T3, TGF-β receptor ALK4 (Homo sapiens, UniProt P36896).
T3 sequence (P36896 24-505): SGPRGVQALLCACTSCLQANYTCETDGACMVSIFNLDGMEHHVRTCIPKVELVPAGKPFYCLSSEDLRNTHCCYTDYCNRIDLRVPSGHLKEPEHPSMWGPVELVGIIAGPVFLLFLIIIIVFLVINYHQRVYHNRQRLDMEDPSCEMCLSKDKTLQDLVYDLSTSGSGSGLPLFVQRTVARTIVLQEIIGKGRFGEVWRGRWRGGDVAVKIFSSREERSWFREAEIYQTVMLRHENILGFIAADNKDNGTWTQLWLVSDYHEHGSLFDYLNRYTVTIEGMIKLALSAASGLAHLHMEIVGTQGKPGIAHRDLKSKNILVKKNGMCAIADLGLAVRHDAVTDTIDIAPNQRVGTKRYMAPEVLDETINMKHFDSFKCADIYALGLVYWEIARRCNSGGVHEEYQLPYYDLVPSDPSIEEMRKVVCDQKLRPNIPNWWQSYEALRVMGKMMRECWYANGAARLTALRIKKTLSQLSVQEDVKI
The settings on record: cited from earlier work.

The mark [1] stands for this setting: 100 μM or 200 μM rebamipide together with 200 μM indomethacin, 6 days.

With `O=C(NC(Cc1cc(=O)[nH]c2ccccc12)C(=O)O)c1ccc(Cl)cc1` (centres unmarked) [rebamipide], the “expression level of mucin 2 (mRNA expression level)” value in the data set with mucin 2 (50 μM, 100 μM and 200 μM added to the medium for 6 days, versus control (Con)) is listed as “increased”. Moreover, the “decrease in the expression of mucin 2 (mRNA expression level) caused by indomethacin” value in the data set on mucin 2 (setting [1]) is given as “tended to be suppressed”. For the same molecule, in the data set on mucin 2 (200 μM added to the medium (R200)), the cytotoxicity entry is “likely to cause cytotoxicity”. In the data set with chromogranin A (CgA) (50 μM, 100 μM and 200 μM added to the medium for 6 days), the “increase in the expression level of CgA (mRNA expression level)” value is given as “not particularly observed”. For the same molecule, in the data set on chromogranin A (CgA) (setting [1]), the “decrease in the expression level of CgA (mRNA expression level) caused by indomethacin” value was “tended to be suppressed”.
Consider `Cc1cccc(-c2nn(C(=S)Nc3ccccc3)cc2-c2ccnc3ccccc23)n1` [A-83-01], for which the “inhibitory activity against TGF-β receptor ALK7” value at TGF-β receptor ALK7 was “exhibited inhibitory activity”. The “inhibitory activity against TGF-β receptor ALK5” value on TGF-β receptor ALK5 was “exhibited inhibitory activity”. In addition, on TGF-β receptor ALK4, the “inhibitory activity against TGF-β receptor ALK4” value is listed as “exhibited inhibitory activity”.
